≈ marks a conversion by molar mass, not a printed value. Where “and” joins values, the source holds several entries; their conditions need not be identical. Identical values can stand only once. Like-named read-outs stand apart in the source and are kept apart here.
Experiments:
[1] = test system: Enterococcus faecalis ATCC 29212; assay: Determination of minimum bactericidal concentrations (agar aliquot subculture); conditions: ATCC29212
[2] = test system: vancomycin-resistant E. faecalis VRE 725B; assay: as above; conditions: Enterococcus faecalis
[3] = test system: methicillin-resistant S. aureus 63718; assay: as above; conditions: Staphylococcus aureus
[4] = test system: vancomycin-resistant E. faecalis VRE 368; assay: In vitro antibacterial evaluation, MIC by microtitration broth method; conditions: Enterococcus faecalis, 24 h
[5] = test system: methicillin-resistant S. aureus SA 630; assay: Determination of minimum bactericidal concentrations (agar aliquot subculture); conditions: Staphylococcus aureus
[6] = test system: vancomycin-resistant E. faecalis VRE 342B; assay: as above; conditions: Enterococcus faecalis
M. smegmatis ATCC 700084 = assay: In vitro antimycobacterial evaluation, MIC (broth dilution micro-method); type: cell-based, Mycobacterium smegmatis
Experimental: For M. smegmatis, the broth dilution micro-method in Middlebrook 7H9 medium (Difco) supplemented with ADC Enrichment (Difco) was used. […] Bacterial inocula were prepared by transferring colonies from culture to sterile water. The cell density was adjusted to 0.5 McFarland units using a densitometer (Densi-La-Meter, LIAP, Riga, Latvia). The final inoculum was made by 1:1000 dilution of the suspension with sterile water. Drug-free controls, sterility controls, and controls consisting of medium and DMSO alone were included. The determination of results was performed visually after three days of static incubation in the darkness at 37 °C in an aerobic atmosphere.

S. aureus ATCC 29213 = assay: MTT assay of bacterial viability (respiration); conditions: for Conc.: lowest multiple of MBC with at least 70% inhibition of S. aureus viability / Conc.: lowest multiple of MIC with at least 70% inhibition of S. aureus viability: MTT, 24 h; for viability of bacterial cells: at their MIC value or below
[7] = Lipophilicity determination by HPLC; type: physicochemical; conditions: for log D6.5: HPLC C18, MeOH 72%/acetate-buffered saline pH 6.5 28%; for log D7.4: HPLC C18, MeOH 72%/acetate-buffered saline pH 7.4 28%; for log k: logarithm of capacity factor, HPLC C18, MeOH 72%/H2O 28%
Description: . A chromatographic column Symmetry® C18 5 μm, 4.6 × 250 mm, Part No. W21751W016 (Waters Corp, Milford, MA, USA) was used. The HPLC separation process was monitored by ChemStation for LC 3D systems (Agilent Technologies). Isocratic elution by a mixture of MeOH (HPLC grade, 72%) and H2O-HPLC Mili-Q grade (28%) as a mobile phase was used for the determination of capacity factor k. Isocratic elution by a mixture of MeOH (HPLC grade, 72%) and acetate-buffered saline (pH 7.4 and pH 6.5) (28%) as a mobile phase was used for the determination of distribution coefficient expressed as D7.4 and D6.5. The total flow of the column was 1.0 mL/min, injection was 20 μL, column temperature was 40 °C, and sample temperature was 10 °C. The detection wavelength of 210 nm was chosen. A KI methanolic solution was used for the determination of the dead times (tD). Retention times (tR) were measured in minutes. The capacity factors k were calculated according to the formula k = (tR − tD)/tD, where tR is the retention time of the solute, and tD is the dead time obtained using an unretained analyte. The distribution coefficients DpH were calculated according to the formula DpH = (tR − tD)/tD. Each experiment was repeated three times.

[8] = test system: methicillin-resistant S. aureus SA 3202; assay: In vitro antibacterial evaluation, MIC by microtitration broth method; conditions: Staphylococcus aureus, 24 h
[9] = test system: vancomycin-resistant E. faecalis VRE 725B; assay: as above; conditions: Enterococcus faecalis, 24 h
[10] = test system: Mycobacterium tuberculosis H37Ra/ATCC 25177; assay: In vitro antimycobacterial evaluation, MIC (alamarBlue); conditions: MT; 14 days, 37 °C
[11] = test system: Staphylococcus aureus ATCC 29213; assay: In vitro antibacterial evaluation, MIC by microtitration broth method; conditions: ATCC29213, 24 h
[12] = test system: methicillin-resistant S. aureus SA 3202; assay: Determination of minimum bactericidal concentrations (agar aliquot subculture); conditions: Staphylococcus aureus
[13] = test system: human monocytic leukemia cell line THP-1; assay: In vitro cell viability analysis (CCK-8); type: cell-based; conditions: ± SD, n = 6, medium with 10% FBS, 24 h
Experimental: Human monocytic leukemia THP-1 cells obtained from the European Collection of Cell Cultures (ECACC, Salisbury, UK) were used for in vitro antiproliferative assays. They were routinely cultured in Roswell Park Memorial Institute RPMI 1640 medium supplemented with 10% fetal bovine serum (FBS), 2% L-glutamine, 1% penicillin, and streptomycin (all from Sigma-Aldrich) at 37 °C with 5% CO2. The cells were incubated in a complete medium (i.e., containing FBS) with test compounds at 37 °C with 5% CO2 for 24 h, similarly as we described previously. The effect of the test compounds dissolved in DMSO on cell viability was determined using a Cell Counting Kit-8 (CCK-8; Sigma) according to the manufacturer’s instructions.

[14] = test system: methicillin-resistant S. aureus 63718; assay: In vitro antibacterial evaluation, MIC by microtitration broth method; conditions: Staphylococcus aureus, 24 h
[15] = test system: vancomycin-resistant E. faecalis VRE 368; assay: Determination of minimum bactericidal concentrations (agar aliquot subculture); conditions: Enterococcus faecalis
S. aureus ATCC 29123 = assay: Crystal violet uptake (membrane permeability); conditions: 4× MIC, 1 h; compared to growth control and 1% Tween 20
[16] = test system: methicillin-resistant S. aureus SA 630; assay: In vitro antibacterial evaluation, MIC by microtitration broth method; conditions: Staphylococcus aureus, 24 h
[17] = test system: vancomycin-resistant E. faecalis VRE 342B; assay: as above; conditions: Enterococcus faecalis, 24 h
[18] = test system: Enterococcus faecalis ATCC 29212; assay: as above; conditions: ATCC29212, 24 h
[19] = test system: Staphylococcus aureus ATCC 29213; assay: Determination of minimum bactericidal concentrations (agar aliquot subculture); conditions: ATCC29213
[20] = test system: methicillin-resistant S. aureus 63718; design: method as in PMID 26079401; conditions: MRSA 63718 (VA2-MRSA); cited from earlier work
[21] = Mycolicibacterium smegmatis, ATCC700084, 72 h
[22] = Mycolicibacterium smegmatis, ATCC700084, 72 h, MS, three days, 37 °C, read-out: MIC

SMILES | MBC [3] | MIC [4] | MBC [5] | Conc.: lowest multiple of MBC with at least 70% inhibition of S. aureus viability (S. aureus ATCC 29213) | Conc.: lowest multiple of MIC with at least 70% inhibition of S. aureus viability (S. aureus ATCC 29213) | log D6.5 [7] | log D7.4 [7] | log k [7] | MIC [8] | MIC [9] | MIC [10] | MIC [11] | MBC [12] | IC50 [13] | MIC [14] | effect on plasma membrane permeability (crystal violet uptake) (S. aureus ATCC 29123) | MIC [16] | MIC [17] | MIC [18] | MBC [19] | other results
CSCC[C@H](NC(=O)c1cc(Cl)ccc1O)C(=O)Nc1ccc(C(F)(F)F)cc1 [3e, 5-Chloro-2-hydroxy-N-[(2S)-4-(methylsulfanyl)-1-oxo-1-{[4-(trifluoromethyl)phenyl]amino}butan-2-yl]benzamide] | 8.95 µM (≈ 4 µg/mL) | 17.9 µM (≈ 8 µg/mL) | 8.95 µM (≈ 4 µg/mL) | 2× MIC (2× MBC) | 2× MIC (2× MBC) | 1.021 | 0.963 | 1.076 | 8.95 µM (≈ 4 µg/mL) | 35.8 µM (≈ 16 µg/mL) | 35.8 µM and 35.8 n.d. µM | 2.24 µM (≈ 1 µg/mL) | 8.95 µM (≈ 4 µg/mL) | > 10000 nM | 8.95 µM (≈ 4 µg/mL) | did not affect plasma membrane permeability | 4.48 µM (≈ 2 µg/mL) | 35.8 µM (≈ 16 µg/mL) | 17.9 µM (≈ 8 µg/mL) | 2.24 µM (≈ 1 µg/mL) | MBC [1]: 35.8 µM (≈ 16 µg/mL); MBC [2]: 35.8 µM (≈ 16 µg/mL); MBC [6]: 35.8 µM (≈ 16 µg/mL); MIC (M. smegmatis ATCC 700084; MS, three days, 37 °C): 35.8 n.d. µM; MIC (M. smegmatis ATCC 700084; [21]): 35.8 µM; S. aureus Viability Inhibition (S. aureus ATCC 29213; at 2× MIC (2× MBC)): 94% and 94.6%; MBC [15]: 35.8 µM (≈ 16 µg/mL)
CC(C)C[C@H](NC(=O)c1cc(Cl)ccc1O)C(=O)Nc1ccc(C(F)(F)F)cc1 [3f] | 0.07 µM (≈ 0.03 µg/mL) | 9.33 µM (≈ 4 µg/mL) | 1.17 µM (≈ 0.502 µg/mL) | 1× MIC (1× MBC) | 1× MIC (1× MBC) | 1.256 | 1.161 | 1.266 | 1.17 µM (≈ 0.502 µg/mL) | 4.66 µM (≈ 2 µg/mL) | 18.7 µM and 18.7 n.d. µM | 1.17 µM (≈ 0.502 µg/mL) | 1.17 µM (≈ 0.502 µg/mL) | 1900 ± 1100 nM | 0.07 µM (≈ 0.03 µg/mL) | did not affect plasma membrane permeability | 1.17 µM (≈ 0.502 µg/mL) |  | 4.66 µM (≈ 2 µg/mL) | 1.17 µM (≈ 0.502 µg/mL) | MBC [1]: 9.33 µM (≈ 4 µg/mL); MBC [2]: 37.3 µM (≈ 16 µg/mL); MBC [6]: 18.7 µM (≈ 8.02 µg/mL); MIC (M. smegmatis ATCC 700084; MS, three days, 37 °C): 18.7 n.d. µM; MIC (M. smegmatis ATCC 700084; [21]): 18.7 µM; S. aureus Viability Inhibition (S. aureus ATCC 29213; at 1× MIC (1× MBC)): 95.3%; viability of bacterial cells (S. aureus ATCC 29213): less than 70%; MBC [15]: 18.7 µM (≈ 8.02 µg/mL)
O=C(N[C@@H](CC1CCCCC1)C(=O)Nc1ccc(C(F)(F)F)cc1)c1cc(Cl)ccc1O [3g, 5-Chloro-N-[(2S)-3-cyclohexyl-1-oxo-1-{[4-(trifluoromethyl)phenyl]amino}propan-2-yl]-2-hydroxybenzamide] | 2.13 µM (≈ 0.999 µg/mL) | 546 µM (≈ 256 µg/mL) | 2.13 µM (≈ 0.999 µg/mL) | 0.5× MIC (0.5× MBC) | 0.5× MIC (0.5× MBC) | 1.615 | 1.576 | 1.679 | 1.07 µM (≈ 0.502 µg/mL) | 546 µM (≈ 256 µg/mL) | n.a. n.d. (n.a. = no activity (MIC > 256 µg/mL)) | 1.07 µM (≈ 0.502 µg/mL) | 1.07 µM (≈ 0.502 µg/mL) | 1400 ± 1100 nM | 2.13 µM (≈ 0.999 µg/mL) | did not affect plasma membrane permeability | 1.07 µM (≈ 0.502 µg/mL) | 546 µM (≈ 256 µg/mL) | 546 µM (≈ 256 µg/mL) | 1.07 µM (≈ 0.502 µg/mL) | MIC (M. smegmatis ATCC 700084; [22]): > 256 µg/mL; S. aureus Viability Inhibition (S. aureus ATCC 29213; at 0.5× MIC (0.5× MBC)): 95.2%; viability of bacterial cells (S. aureus ATCC 29213): less than 70%; averaged lipophilicity value of log k/log D6.5/log D7.4 ([7]; average of the three experimental descriptors): 1.62 ± 0.05
O=C(N[C@@H](Cc1ccccc1)C(=O)Nc1ccc(C(F)(F)F)cc1)c1cc(Cl)ccc1O [3h] | 0.27 µM (≈ 0.125 µg/mL) | 277 µM (≈ 128 µg/mL) | 2.16 µM (≈ 1 µg/mL) | 2× MIC (2× MBC) | 2× MIC (2× MBC) | 1.148 | 1.043 | 1.192 | 2.16 µM (≈ 1 µg/mL) | 277 µM (≈ 128 µg/mL) | n.a. n.d. (n.a. = no activity (MIC > 256 µg/mL)) | 1.08 µM (≈ 0.5 µg/mL) | 2.16 µM (≈ 1 µg/mL) | 3300 ± 1000 nM | 0.27 µM (≈ 0.125 µg/mL) | did not affect plasma membrane permeability | 1.08 µM (≈ 0.5 µg/mL) | 277 µM (≈ 128 µg/mL) | 277 µM (≈ 128 µg/mL) | 2.16 µM (≈ 1 µg/mL) | MIC (M. smegmatis ATCC 700084; [22]): > 256 µg/mL; S. aureus Viability Inhibition (S. aureus ATCC 29213; at 2× MIC (2× MBC)): 94%
CC1(C)S[C@@H]2[C@H](NC(=O)[C@H](N)c3ccccc3)C(=O)N2[C@H]1C(=O)O [APC, ampicillin, reference compound] | > 45.8 µM | 11.5 µM (≈ 4.02 µg/mL) | > 45.8 µM | 8× MIC (>8× MBC) | 8× MIC (>8× MBC) |  |  |  | 45.8 µM (≈ 16 µg/mL) | 11.5 µM (≈ 4.02 µg/mL) |  | 5.72 µM (≈ 2 µg/mL) | > 45.8 µM |  | 45.8 µM (≈ 16 µg/mL) |  | 45.8 µM (≈ 16 µg/mL) | 11.5 µM (≈ 4.02 µg/mL) | 2.81 µM (≈ 0.982 µg/mL) | > 5.72 µM | MBC [1]: 2.81 µM (≈ 0.982 µg/mL); MBC [2]: 11.5 µM (≈ 4.02 µg/mL); MBC [6]: 11.5 µM (≈ 4.02 µg/mL); S. aureus Viability Inhibition (S. aureus ATCC 29213; at 8× MIC (>8× MBC)): 90.0%; MBC [15]: 11.5 µM (≈ 4.02 µg/mL)
CN[C@H](CC(C)C)C(=O)N[C@H]1C(=O)N[C@@H](CC(N)=O)C(=O)N[C@H]2C(=O)N[C@H]3C(=O)N[C@H](C(=O)N[C@H](C(=O)O)c4cc(O)cc(O)c4-c4cc3ccc4O)[C@H](O)c3ccc(c(Cl)c3)Oc3cc2cc(c3O[C@@H]2O[C@H](CO)[C@@H](O)[C@H](O)[C@H]2O[C@H]2C[C@](C)(N)[C@H](O)[C@H](C)O2)Oc2ccc(cc2Cl)[C@H]1O [vancomycin] |  |  |  |  |  |  |  |  |  |  |  |  |  |  |  |  |  |  |  |  | MIC [20]: 2 µg/mL (≈ 1.38 µM)
